US20150344426A1, “COMPOUNDS AND THERAPEUTIC USES THEREOF” (ALZHEIMER'S INSTITUTE OF AMERICA, INC., priority 2012, published 2015)

Key:
[1] = Stability in mouse plasma; type: in vitro ADME; conditions: read-out: Mouse Plasma t1/2
Description: (§1) Relative stability of Example Compound Nos. 1 through 60 in mouse plasma and mouse liver microsomal preparations.
(§2) Certain Example Compounds were each added to a final concentration of 1 μM to 1 mL of each of mouse plasma and mouse liver microsomal preparations (with and without 1 mM NADPH). Stability assays were run in duplicate and were sampled at 0, 5, 15, 30, 60 and 120 minutes as follows: one hundred microliter aliquots of samples were removed at the specified sampling times, and the reaction was quenched with 400 μL of acetonitrile.
(§3) Samples were analyzed by HPLC-ESI-MS/MS by measuring the peak area of both the starting Example Compound and parent compound (i.e., either Parent Compound A or Parent Compound B) that were created by removal of the Prodrug Moiety (as defined in Section 6 herein).

[2] = Stability in mouse liver microsomal preparations; type: in vitro ADME; conditions: liver microsomes, with and without 1 mM NADPH (not said which), read-out: Mouse Liver Microsomes t1/2
Description: as §1, §2, §3

[3] = Stability assessment / semi-quantitative hygroscopicity in a relative humidity (RH) chamber; type: physicochemical; conditions: solid in RH chamber; morphology and parent:prodrug composition
Description: “ND” in Table 2 refers to “No Data”. Purity was determined by HPLC. Melting point was determined by differential scanning calorimetry (“DSC”), and semi-quantitative hygroscopicity was determined in a relative humidity (“RH”) chamber.

[4] = tested on: HT1080 human fibrosarcoma cancer cells; assay: Anti-tumor activity in HT1080 human fibrosarcoma xenograft with twice daily dosing; type: in vivo; conditions: for animals euthanized due to tumor volume exceeding 1,500 mm^3 / animals died: Example Compound 42 study, cohort of ten; for anti-tumor activity in the HT1080 xenograft model (summary statement): administered orally, twice daily
Description: One million HT1080 cells were implanted subcutaneously in the right flank of female nude mice (Crl:NU-Fox1^nu). When the median tumor volume (MTV) was approximately 209 mm^3, mice were randomized into four cohorts of ten animals. […] All cohorts were dosed twice daily for 7 days. The mice were observed daily for mortality and signs of toxicity. Tumor volumes and body weights were determined from Days 1 to 22. The results are depicted in FIG. 4.

[5] = Example Compounds 44/45 study, 12 mg/kg twice daily for 7 days, Day 9

Row | Structure (SMILES) | half-life at 1 µM [1] | half-life at 1 µM [2] | Stability at 40° C. and 75% RH [3] | Stability at 60° C. and 75% RH [3] | further results
1 | CC(=O)OC(C)[n+]1cccc(CNC(=O)Nc2ccc(OCCc3ccccc3-c3ccccc3)cc2)c1 (centres unmarked) [Example 37, 1-[1-(Acetyloxy)ethyl]-3-{[({4-[2-(biphenyl-2-yl)ethoxy]phenyl}carbamoyl)amino]methyl}pyridinium] | > 5 min | 18.7 min | Deliquesced at 2 Hr No change in composition | Deliquesced at 2 Hr No change in composition | –
2 | CC(=O)OC(C(C)C)[n+]1cccc(CNC(=O)Nc2ccc(OCCc3ccccc3-c3ccccc3)cc2)c1 (centres unmarked) [Example 38, 1-[1-(Acetyloxy)-2-methylpropyl]-3-{[({4-[2-(biphenyl-2-yl)ethoxy]phenyl}carbamoyl)amino]methyl}pyridinium] | > 5 min | 30.9 min | No change in morphology at 7 days | Deliquesced at 4 days | –
3 | CC(OC(=O)C(C)(C)C)[n+]1cccc(CNC(=O)Nc2ccc(OCCc3ccccc3-c3ccccc3)cc2)c1 (centres unmarked) [Example 39, 3-{[({4-[2-(Biphenyl-2-yl)ethoxy]phenyl}carbamoyl)amino]methyl}-1-{1-[(2,2-dimethylpropanoyl)oxy]ethyl}pyridinium] | 27 min | 113 min | Deliquesced at 2 Hr No change in composition | Deliquesced at 2 Hr No change in composition | –
4 | CC(C)C(OC(=O)C(C)(C)C)[n+]1cccc(CNC(=O)Nc2ccc(OCCc3ccccc3-c3ccccc3)cc2)c1 (centres unmarked) [Example 40, 3-{[({4-[2-(Biphenyl-2-yl)ethoxy]phenyl}carbamoyl)amino]methyl}-1-{1-[(2,2-dimethylpropanoyl)oxy]-2-methylpropyl}pyridinium] | 53.5 min | 399 min | No change in morphology at 14 days, only prodrug observed | Approximately 5:95 parent to prodrug moiety observed at 14 days | –
5 | CC(OC(=O)c1ccccc1)[n+]1cccc(CNC(=O)Nc2ccc(OCCc3ccccc3-c3ccccc3)cc2)c1 (centres unmarked) [Example 42, 1-[1-(Benzoyloxy)ethyl]-3-{[({4-[2-(biphenyl-2-yl)ethoxy]phenyl}carbamoyl)amino]methyl}pyridinium] | – | – | No change in morphology at 14 days, only prodrug observed | Deliquesced at 13 days, approx 40:60 parent to prodrug observed | MTV increase ([4]; 4 mg/kg twice daily for 7 days, Day 8): 131%; tumor growth inhibition ([4]; 4 mg/kg twice daily for 7 days, end of dosing, Day 8): 21%; MTV increase ([4]; 4 mg/kg twice daily for 7 days, end of the study, Day 15): 469%; MTV increase ([4]; 6 mg/kg twice daily for 7 days, Day 8): 87%; tumor growth inhibition ([4]; 6 mg/kg twice daily for 7 days, end of dosing, Day 8): 48%; MTV increase ([4]; 6 mg/kg twice daily for 7 days, end of the study, Day 15): 215%; MTV decrease ([4]; 8 mg/kg twice daily for 7 days, Day 8): 4%; tumor regression ([4]; 8 mg/kg twice daily for 7 days, end of dosing, Day 8): 4%; MTV increase ([4]; 8 mg/kg twice daily for 7 days, end of the study, Day 15): 449%; MTV decrease ([4]; 12 mg/kg twice daily for 7 days, Day 8): 38%; tumor regression ([4]; 12 mg/kg twice daily for 7 days, end of dosing, Day 8): 38%; MTV increase ([4]; 12 mg/kg twice daily for 7 days, end of the study, Day 15): 236%; animals euthanized due to tumor volume exceeding 1,500 mm^3 ([4]; 4 mg/kg): three; animals died ([4]; 6 mg/kg): One; animals euthanized due to tumor volume exceeding 1,500 mm^3 ([4]; 6 mg/kg): one; animals died ([4]; 8 mg/kg): One; animals euthanized due to tumor volume exceeding 1,500 mm^3 ([4]; 8 mg/kg): two; animals died ([4]; 12 mg/kg): One; anti-tumor activity in the HT1080 xenograft model (summary statement) ([4]; all doses tested): dose-dependent anti-tumor activity
6 | CC(=O)OC[C@@H]1CCCN1C(=O)OC[n+]1cccc(CNC(=O)Nc2ccc(OCCc3ccccc3-c3ccccc3)cc2)c1 [Example 45, 1-{[({(2S)-2-[(Acetyloxy)methyl]pyrrolidin-1-yl}carbonyl)oxy]methyl}-3-{[({4-[2-(biphenyl-2-yl)ethoxy]phenyl}carbamoyl)amino]methyl}pyridinium] | > 5 min | > 5 min | – | – | MTV decrease [4, 5]: 54%; tumor regression [4, 5]: 54%; tumor growth inhibition relative to vehicle ([4]; Example Compounds 44/45 study, 12 mg/kg twice daily for 7 days, Day 22): 91%; MTV increase ([4]; Example Compounds 44/45 study, 12 mg/kg twice daily for 7 days, end of the study, Day 22): 33%; anti-tumor activity in the HT1080 xenograft model (summary statement) ([4]; all doses tested): significant anti-tumor activity; Tolerability ([4]; xenograft mice, all doses tested, orally twice daily): well tolerated
7 | O=C(NCc1ccc[n+](COC(=O)N2CCC[C@H]2CO)c1)Nc1ccc(OCCc2ccccc2-c2ccccc2)cc1 [Example 46, 3-{[({4-[2-(Biphenyl-2-yl)ethoxy]phenyl}carbamoyl)amino]methyl}-1-[({[(2S)-2-(hydroxymethyl)pyrrolidin-1-yl]carbonyl}oxy)methyl]pyridinium] | 87.2 min | 1250 min | – | – | –
8 | CC(C)C(=O)OC(C)[n+]1cccc(CNC(=O)Nc2ccc(OCCc3ccccc3-c3ccccc3)cc2)c1 (centres unmarked) [Example 47, 3-{[({4-[2-(Biphenyl-2-yl)ethoxy]phenyl}carbamoyl)amino]methyl}-1-{1-[(2-methylpropanoyl)oxy]ethyl}pyridinium] | – | – | No change in morphology at 14 days, only prodrug observed | Approximately 45:55 parent to prodrug observed after 14 days | –
9 | COC(=O)CNC(=O)OC[n+]1cccc(CNC(=O)Nc2ccc(OCCc3ccccc3-c3ccccc3)cc2)c1 [Example 48, Methyl N-{[(3-{[({4-[2-(biphenyl-2-yl)ethoxy]phenyl}carbamoyl)amino]methyl}pyridinium-1-yl)methoxy]carbonyl}glycinate] | – | – | Deliquesced at 2 hr No decomposition observed | Deliquesced at 2 hr No decomposition observed | –
10 | COC(=O)CCNC(=O)OC[n+]1cccc(CNC(=O)Nc2ccc(OCCc3ccccc3-c3ccccc3)cc2)c1 [Example 49, Methyl N-{[(3-{[({4-[2-(biphenyl-2-yl)ethoxy]phenyl}carbamoyl)amino]methyl}pyridinium-1-yl)methoxy]carbonyl}-beta-alaninate] | – | – | Deliquesced at 24 hrs No decomposition observed | Deliquesced at 7 days | –
11 | COC(=O)CN(C)C(=O)OC[n+]1cccc(CNC(=O)Nc2ccc(OCCc3ccccc3-c3ccccc3)cc2)c1 [Example 50, Methyl N-{[(3-{[({4-[2-(biphenyl-2-yl)ethoxy]phenyl}carbamoyl)amino]methyl}pyridinium-1-yl)methoxy]carbonyl}-N-methylglycinate] | – | – | No change in morphology at 14 days, only prodrug observed | Oiled out at 2 days No decomposition observed | –
12 | O=C(NCc1ccc[n+](COC(=O)c2cccnc2)c1)Nc1ccc(OCCc2ccccc2-c2ccccc2)cc1 [Example 53, 3-{[({4-[2-(Biphenyl-2-yl)ethoxy]phenyl)carbamoyl)amino]methyl}-1-{[(pyridin-3-ylcarbonyl)oxy]methyl}pyridinium] | – | – | – | All prodrug decomposed to parent at 24 h | –
13 | COC(=O)CCC(=O)OC[n+]1cccc(CNC(=O)Nc2ccc(OCCc3ccccc3-c3ccccc3)cc2)c1 [Example 54, 3-{[({4-[2-(Biphenyl-2-yl)ethoxy]phenyl}carbamoyl)amino]methyl}-1-{[(4-methoxy-4-oxobutanoyl)oxy]methyl}pyridinium] | – | – | – | Deliquesced at 4 days | –
14 | O=C(NCc1ccc[n+](COC(=O)c2ccccc2O)c1)Nc1ccc(OCCc2ccccc2-c2ccccc2)cc1 [Example 55, 3-{[({4-[2-(Biphenyl-2-yl)ethoxy]phenyl}carbamoyl)amino]methyl}-1-{[(2-hydroxybenzoyl)oxy]methyl}pyridinium] | – | – | Deliquesced at 4 h | Deliquesced at 4 h | –
15 | O=C(NCc1ccc[n+](COC(=O)N2CCCC2)c1)Nc1ccc(OCCc2ccccc2-c2ccccc2)cc1 [Example 59, 3-{[({4-[2-(Biphenyl-2-yl)ethoxy]phenyl}carbamoyl)amino]methyl}-1-{[(pyrrolidin-1-ylcarbonyl)oxy]methyl}pyridinium] | – | – | – | Deliquesced at 4 h | –
16 | O=C(NCc1ccc[n+](COC(=O)N2CCOCC2)c1)Nc1ccc(OCCc2ccccc2-c2ccccc2)cc1 [Example 60, 3-{[({4-[2-(Biphenyl-2-yl)ethoxy]phenyl}carbamoyl)amino]methyl}-1-{[(morpholin-4-ylcarbonyl)oxy]methyl}pyridinium] | – | – | Deliquesced at 4 h | Deliquesced at 4 h | –
